Source: publication PMC7144209, “Design, synthesis and anticancer activity of naphthoquinone derivatives” (Journal of Enzyme Inhibition and Medicinal Chemistry, 2020)

What was measured:
[1] = tested on: SMMC-7721; test: MTT cell viability assay, SMMC-7721 cells; type: cell-based; conditions: Homo sapiens, 48 h, n = 3
Description: (§1) MGC-803, SGC-7901, U87 and SMMC-7721 cell lines were cultured in DMEM supplemented with 10% foetal bovine serum, 100 IU/mL penicillin/streptomycin. The cells were incubated in an atmosphere containing 5% CO2 at 37 °C.
(§2) MGC-803, SGC-7901, U87 and SMMC-7721 cells were plated in 96-well plate at 7000 per well. Cells were incubated with the different concentrations of the compounds for 48 h. Subsequently, MTT (0.5 mg/mL) were used to test the cell viability, then 150 μL DMSO was added to each well after cells were incubated for 4 h and the absorbance was measured at 492 nm.

[2] = tested on: U87; test: MTT cell viability assay, U87 cells; type: cell-based; conditions: 48 h, n = 3
Description: as §1, §2

[3] = tested on: PI3K/AKT/MTOR signalling pathway; test: Western blot of PI3K/AKT/MTOR pathway; type: cell-based, human
Description: (§3) RIPA lysis buffer was used to dissociate the treated cells. Cells were lysed and the supernatant was harvested after centrifuged for 30 min. The cell proteins were separated using Sodium dodecyl sulphate-polyacrylamide gel electrophoresis, and then they were transferred to the PVDF membranes. The membranes were blocked with skimmed milk solution (5%) for 2 h, then incubated with primary antibodies (1:1000, cst) for 20 h at 4 °C. The membranes were detected by chemiluminescence reagent after probed with the secondary antibody for 1 h.
As a therapeutic target for cancer, the PI3K/AKT/MTOR signalling pathway participates in regulating autophagy. Consequently, Western blot experiment was used to explore the impact of compound 12 on the level of phospho-PI3K, phospho-AKT and phospho-mTOR. […] 3-MA (3-methyladenine) is also a PI3K inhibitor[57], so compound 12 (4 μM) with 3-MA (500 μM) were used to treated the cells.

[4] = tested on: SGC-7901 cells; test: Colony formation assay; type: cell-based, human; conditions: SGC-7901, 2, 4, 8 μM, 12 d
Description: SGC-7901 cells (8000/well) were seeded in 6-well plate, and treated with indicated concentrations of compound 12 (2 μM, 4 μM, 8 μM) for 12 d. The medium was removed and methanol (500 μL/well) was added to fix at the cells for 3 min. Then cells were stained with giemsa working fluid for 15 min and washed with PBS. The number of colonies was counted.

[5] = tested on: GFP-LC3 in SGC-7901 cells; test: GFP-LC3 transfection, puncta by confocal microscopy; type: cell-based, human
Description: A plasmid GFP-tagged LC3 reporter gene (0.8 μg/500 μL) was transfected into SGC-7901 cells by Lipofectamine 2000, then cells were incubated for 24 h. After different treatments for 24 h, cells were fixed with 4% paraformaldehyde for 20 min, and washed three times with PBS. Finally, Laser confocal dishes were analysed using confocal microscope.
Another typical feature of autophagy is the accumulation of the acidic autophagic vacuoles (AVOs)[45]^,[46]. To verify the development of AVOs, Acridine Orange (AO) staining was used to examine whether the acidic vesicular organelles in SGC-7901 cells were increased. AO produces red fluorescence when it accumulates in acidic regions such as autophagy lysosomes and lysosomes and produces bright green fluorescence in the cytoplasm and the nucleus. […] GFP-LC3 indicating technique was also used to detect the autophagy at the same time. When autophagy is formed, multiple bright green fluorescent spots will form as the GFP-LC3 fusion protein can translate to autophagosome membrane. From Figure 6(C), compared to the blank control group, GFP-LC3 puncta were increased after cells treated with compound 12 (4 μM) meanwhile decreased after treated with compound 12 (4 μM) and 3-MA (500 μM).

[6] = tested on: Bax, Bcl-2, cleaved PARP in SGC-7901 cells; test: Western blot of apoptosis-related proteins; type: cell-based, human
Description: as §3
(§4) Apoptosis is one of the main methods that result in cell death. In this study, Annexin V-FITC/PI kit was used to evaluate the cell apoptosis. […] To further, investigate whether the cell apoptosis induced by title compound, Western blot analysis was used to measure the effect of the compound on apoptosis of SGC-7901 cell. As reported that apoptosis pathway could be regulated by the activation of PARP and Bcl2 family proteins[40]^,[41].

[7] = tested on: SGC-7901, MGC-803, SMMC-7721, U-87 cell lines; test: MTT anticancer activity, summary in words over the cell line panel; type: cell-based; conditions: MTT assay
Description: as §2
Compounds 1–24 were detected for anticancer activities against SGC-7901, MGC-803, SMMC-7721, U-87 cell lines in vitro by the MTT assay, and ADM was used as the positive control. From Table 1, when the phenolic hydroxyls of naphthoquinone moiety were converted to ether, the activity was missing. […] So colony formation assay of this compound (Figure 4) was used to investigate the effect of it on cell proliferation in SGC-7901 cells. The experiment examined the ability for producing colonies after the cells were treated with the cell death agents[35]^,[36].

[8] = tested on: SGC-7901; test: MTT cell viability assay, SGC-7901 cells; type: cell-based, human; conditions: n = 3
Description: as §1, §2

[9] = tested on: LC3-II, P62, Beclin1 in SGC-7901 cells; test: Western blot of autophagy-related proteins; type: cell-based, human; conditions: SGC-7901, Western blot
Description: as §3
Autophagy is a process of lysosomal degradation that can deliver the cytoplasmic cargo to the lysosome. To assess whether compound 12 could promote autophagy on SGC-7901 cells, the expressions of autophagy-related proteins were examined. Autophagy will be switched on when LC3-I was converted into LC3-II, and the level of LC3-II involves in the formation of autophagosome. Meanwhile p62 is a marker of the degradative lysosome[43]^,[44]. As shown in Figure 6(A), compound can decrease the level of P62 and increase the expressions of LC3II and Beclin1.

[10] = tested on: L02; test: MTT cell viability assay, L02 cells; type: cell-based; conditions: Homo sapiens, n = 3
[11] = tested on: SGC-7901 cells; test: Annexin V-FITC/PI apoptosis assay (flow cytometry); type: cell-based, human; conditions: 48 h; for total apoptosis: control 4.34%
Description: After the indicated treatments for 48 h, cells were collected, washed three times with cold PBS, centrifuged and resuspended with 400 μL AnnexinV binding buffer per tube. Then the cells were stained with 5μLAnnexinV-FITC and incubated in the dark for 10 min on ice. Finally, 10 μL PI staining solution was added, and cells were detected by the flow cytometry after incubated in the dark for 5 min. Flowjo 7.6.1 software was used to analyse the cell apoptosis.
as §4

[12] = compound 12 4 μM with 3-MA 500 μM
[13] = SGC-7901, increasing concentration (1, 2, 4 μM)

CC(C)=CCC(OC(=O)CCC(=O)Nc1ccc(Oc2ccccc2)cc1)C1=CC(=O)c2c(O)ccc(O)c2C1=O (stereo not drawn) [Compound 12, 1-(5,8-dihydroxy-1,4-dioxo-1,4-dihydronaphthalen-2-yl)-4-methylpent-3-en-1-yl-4-oxo-4-((4-phenoxyphenyl)amino)butanoate]
IC50 [1]: 20.6 ± 0.4 µM | IC50 [2]: 3.8 ± 0.2 µM | IC50 ([2]; Homo sapiens, U-87 MG): 3.85 µM | expression of p-AKT ([3]; 1, 2, 4 μM, 48 h): decreased in a dose-dependent manner | expression of p-MTOR ([3]; 1, 2, 4 μM, 48 h): decreased in a dose-dependent manner | expression of p-PI3K ([3]; 1, 2, 4 μM, 48 h): decreased in a dose-dependent manner | ratio of p-AKT/AKT compared with compound 12 alone [3, 12]: increased | ratio of p-MTOR/MTOR compared with compound 12 alone [3, 12]: increased | ratio of p-PI3K/PI3K compared with compound 12 alone [3, 12]: increased | number of colonies vs control [4]: decreased | GFP-LC3 puncta vs blank control ([5]; SGC-7901, compound 12 4 μM): increased | GFP-LC3 puncta ([5]; SGC-7901, compound 12 4 μM and 3-MA 500 μM): decreased | level of Bax [6, 13]: up-regulated | level of Bcl2 [6, 13]: down-regulated | level of cleaved PARP [6, 13]: up-regulated | up-regulation of Bax and cl-PARP and down-regulation of Bcl-2 in the group with 3-MA ([6]; compound 12 with 3-MA 500 μM, 48 h): inhibited | anticancer activity (in words) [7]: good activity | IC50 ([8]; 48 h): 4.1 ± 2.6 µM | IC50 ([8]; Homo sapiens, SGC-7901, 48 h): 4.09 µM | expression of Beclin1 [9]: increase | expression of LC3II [9]: increase | level of P62 [9]: decrease | IC50 [10]: > 50 µM | total apoptosis ([11]; SGC-7901, 1 μM): 6.45% | total apoptosis ([11]; SGC-7901, 2 μM): 9.72% | total apoptosis ([11]; SGC-7901, 4 μM): 19.9% | apoptosis rate in the presence of 3-MA compared with compound 12 alone ([11]; compound 12 4 μM, 3-MA 500 μM): decreased
